Assay results reported in publication PMC3992280 (Biochimica et biophysica acta, 2014).
≈ marks a conversion by molar mass, not a printed value. Like-named read-outs stand apart in the source and are kept apart here.

Experiments:
[1] = Autoxidation of rifamycins in phosphate buffer; type: physicochemical; details: for spectral changes under autoxidizing conditions: phosphate buffer pH 7.3, trace metals, up to 24 h
[2] = test system: Mycobacterium smegmatis strain RHS 234; type: cell-based; details: Mycolicibacterium smegmatis, RHS234, 120 h
[3] = test system: Mycobacterium smegmatis strain mc^2155; test: microbe, parasite or virus in culture; type: cell-based; details: for MIC: Mycolicibacterium smegmatis, MC^2155, 120 h; for resistance factor R (MICwt/MICmutant): mc^2155 versus RHS 234
CYP3A4 = details: cited from earlier work
[4] = in vivo; cited from earlier work
tear lipocalin [5] = target: T1, tear lipocalin (Homo sapiens, UniProt P31025); test: Rifamycin binding to tear lipocalin; details: increase in binding affinity to tear lipocalin
serum albumin = details: cited from earlier work
[6] = in vivo; cited from earlier work; remark: listed apart in the source
tear lipocalin [7] = target: T1, tear lipocalin; test: Protection from oxidation of rifamycins by tear lipocalin; type: physicochemical; details: tear lipocalin 100 μM; for oxidation by K3Fe(CN)6 after initial protection with tear lipocalin: K3Fe(CN)6 90 μM added after 180 min; for duration of protection from autoxidation by tear lipocalin: drug 15 μM, pH 7.3
tear lipocalin [8] = target: T1, tear lipocalin; details: read-out: Kd for tear lipocalin; known dissociation constant; cited from earlier work
[9] = monitored at 475 nm; cited from earlier work
[10] = test system: Mycobacterium tuberculosis; details: M. tuberculosis; cited from earlier work
Staphylococcus aureus = details: in mice; cited from earlier work

T1 sequence (P31025 19-176): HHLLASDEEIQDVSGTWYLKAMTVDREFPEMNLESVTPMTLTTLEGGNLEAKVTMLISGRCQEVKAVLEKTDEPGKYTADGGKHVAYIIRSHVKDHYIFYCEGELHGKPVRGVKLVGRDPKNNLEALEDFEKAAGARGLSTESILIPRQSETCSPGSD

Row | SMILES | spectral changes under autoxidizing conditions [1] | MIC [2] [µM] | MIC [3] [µM] | oxidation by K3Fe(CN)6 after initial protection with tear lipocalin (tear lipocalin [7]) | duration of protection from autoxidation by tear lipocalin (tear lipocalin [7]) | other results
1 | CO[C@H]1/C=C/O[C@@]2(C)Oc3c(C)c(O)c4c(c3C2=O)C2=NC3(CCN(CC(C)C)CC3)NC2=C(NC(=O)/C(C)=C\C=C\[C@H](C)[C@H](O)[C@@H](C)[C@@H](O)[C@@H](C)[C@H](OC(C)=O)[C@@H]1C)C4=O [Rifabutin] | did not show spectral changes under autoxidizing conditions | 0.07 (≈ 0.0593 µg/mL) | 0.3 (≈ 0.254 µg/mL) | – | – | –
2 | CO[C@H]1/C=C/O[C@@]2(C)Oc3c(C)c(O)c4c(=O)c(c5oc6cc(N7CCN(CC(C)C)CC7)cc(O)c6nc-5c4c3C2=O)NC(=O)/C(C)=C\C=C\[C@H](C)[C@H](O)[C@@H](C)[C@@H](O)[C@@H](C)[C@H](OC(C)=O)[C@@H]1C [Rifalazil] | did not show spectral changes under autoxidizing conditions | < 0.06 | 0.13 (≈ 0.122 µg/mL) | – | – | induction of CYP3A4 (CYP3A4): Notably lacking; side effects [4]: transient flue-symptoms, neutropenia, and thrombocytopenia; free energy change of binding, rifalazil over rifampin (tear lipocalin [5]): about 2.4 kcal/mole; bound to serum albumin (serum albumin; in the circulation of animals): 99%; evidence of hepatotoxicity [6]: Notably lacking; mycobactericidal activity relative to rifampin [3]: 16 times; resistance factor R (MICwt/MICmutant) [3]: 2; resistance factor R (MICwt/MICmutant) ([3]; listed as rifalazil): ≈ 2
3 | CO[C@H]1/C=C/O[C@@]2(C)Oc3c(C)c(O)c4c(O)c(c(/C=N/N5CCN(C)CC5)c(O)c4c3C2=O)NC(=O)/C(C)=C\C=C\[C@H](C)[C@H](O)[C@@H](C)[C@@H](O)[C@@H](C)[C@H](OC(C)=O)[C@@H]1C [Rifampin] | show spectral changes under autoxidizing conditions | 0.3 (≈ 0.247 µg/mL) | 2.43 (≈ 2 µg/mL) | rapidly oxidized | at least 3 h | Kd (tear lipocalin [8]): 128 µM; bound to serum albumin (serum albumin): 80-85%; spectral changes of autoxidation, completeness [9]: nearly complete after 24 h
4 | CO[C@H]1/C=C/O[C@@]2(C)Oc3c(C)c(O)c4c(O)c(cc(O)c4c3C2=O)NC(=O)/C(C)=C\C=C\[C@H](C)[C@H](O)[C@@H](C)[C@@H](O)[C@@H](C)[C@H](OC(C)=O)[C@@H]1C [Rifamycin SV] | show spectral changes under autoxidizing conditions | 0.69 (≈ 0.481 µg/mL) | < 1.38 | appeared better protected | at least 3 h | MIC [10]: .05 µg/mL (≈ 0.0717 µM); fraction oxidized ([1]; within 30 minutes): less than 10%
5 | CO[C@H]1/C=C/O[C@@]2(C)Oc3c(C)c(O)c4c(c3C2=O)C(=O)C=C(NC(=O)/C(C)=C\C=C\[C@H](C)[C@H](O)[C@@H](C)[C@@H](O)[C@@H](C)[C@H](OC(C)=O)[C@@H]1C)C4=O [Rifamycin S] | – | – | – | – | – | MIC [10]: .05 µg/mL (≈ 0.0719 µM); ED50 compared with rifamycin SV (Staphylococcus aureus): higher ED50, than rifamycin SV
6 | CO[C@H]1/C=C/O[C@@]2(C)Oc3c(C)c(O)c4c(O)c(c(/C=N/N5CCN(C6CCCC6)CC5)c(O)c4c3C2=O)NC(=O)/C(C)=C\C=C\[C@H](C)[C@H](O)[C@@H](C)[C@@H](O)[C@@H](C)[C@H](OC(C)=O)[C@@H]1C [Rifapentine] | show spectral changes under autoxidizing conditions | 0.14 (≈ 0.123 µg/mL) | < 2.28 | rapidly oxidized | at least 3 h | –
7 | CO[C@H]1/C=C/O[C@@]2(C)Oc3c(C)c(O)c4c(O)c(c5c(nc6cc(C)ccn65)c4c3C2=O)NC(=O)/C(C)=C\C=C\[C@H](C)[C@H](O)[C@@H](C)[C@@H](O)[C@@H](C)[C@H](OC(C)=O)[C@@H]1C [Rifaximin] | did not show spectral changes under autoxidizing conditions | 0.16 (≈ 0.126 µg/mL) | < 1.27 | – | – | –
